The results in this text go back to patent US12678511B2, “Peptide and use thereof” (Kansai Medical University Educational Corgoration, priority 2019, dated 2026).

Series [1] relates to human mesenchymal stem cells (hMSC), line UE6E7T-3. The experiment in a line: Penetration of MSCPP-EGFPHIS fusion peptides into hMSC (fluorescence microscopy). In kind it is cell-based. To be noted: MSCPP-EGFPHIS fusion peptide, cultured four hours, FIG. 1. An excerpt: Using an independently prepared 9-amino acid residue peptide as a phenotype linked via puromycin to a protein-RNA chimeric random peptide library (in vitro virus library; IVVL) having an mRNA coding sequence as the corresponding genotype, a conventional IVV (in vitro virus) method was used with human mesenchymal stem cells (hMSC) as the absorption target cells to repeat a reaction cycle in a culture system, thus isolating 81 types of peptide having penetration into mesenchymal stem cells (mesenchymal stem cell-penetrating peptide; MSCPP).
Next, fusion peptides (having a His tag formed from six histidine residues at the C-terminus of the fusion peptide) of each of the 81 isolated MSCPP and EGFP (excitation wavelength: 488 nm, fluorescence wavelength: 509 nm) (MSCPP-EGFPHIS) were produced. The penetration properties into hMSC were evaluated for each of the MSCPP-EGFPHIS. Cells of the hMSC line UE6E7T-3 were used as the hMSC. An RPMI 1640 medium containing 10% FBS was used as the medium. The UE6E7T-3 cells were inoculated into a 96-well plate, medium containing each MSCPP-EGFPHIS (5 μL of fusion peptide solution and 50 μL of medium per well) was added, and the mixtures were cultured for four hours. Following culturing, the cells were inspected under a fluorescence microscope. In FIG. 1, “EGFPHIS” represents EGFP having a His tag formed from six histidine residues at the C-terminus, but not being fused with an MSCPP peptide. Further, “Poly-r9” (9-residue continuous D-arginine) is a non-selective membrane-permeable peptide that is currently widely used.

In series [2] the test system is hMSC. The experiment in a line: Cell selectivity of FITC-labelled peptides: penetration into hMSC. Type of series: cell-based, human. To be noted: FITC-labelled peptide 4 μM, four hours, FIG. 2. Here is the method: (§1) Among the peptides identified in Example 1, the four peptides MSCPP33, 48, 49 and 106, Poly-r9 as a positive control and MSCPP22 as a negative control were synthesized with an FITC (fluorescein isothiocyanate) (excitation wavelength: 495 nm, fluorescence wavelength: 520 nm) label, and then subjected to a hydrochloride treatment. These peptides were each obtained via contract synthesis by Sigma-Aldrich Japan (Genosis division). The MSCPP33 was dissolved in 20% DMSO. The MSCPP48 developed a precipitate following thawing of the frozen state, and was therefore subjected to a sonication treatment prior to use. The MSCPP49 and MSCPP106 were dissolved in water prior to use.
Subsequently, the penetration of each peptide into hMSC, normal human dermal fibroblasts (NHDF), and BxPC3 cells, which are an established cell line derived from human pancreatic adenocarcinoma, was confirmed. In the case of the hMSC, cells that had been inoculated into a 24-well plate at 4×10^4 cells/well and then cultured for 24 hours in an MSC medium were used. In the case of the NHDF and BxPC3 cells, cells that had been inoculated into a 24-well plate at 4×10^4 cells/well and then cultured for 24 hours in an RPMI 1640 medium containing 10% FBS were used. Mediums (RPMI 1640 medium containing 10% FBS) containing 4 μM of each of the peptides were then added to each of the cells and cultured for four hours. Following culturing, each of the cells was subjected to nuclear staining with Hoechst 33342 (excitation wavelength: 352 nm, fluorescence wavelength: 461 nm), and was then observed using a phase difference/fluorescence microscope. In FIG. 2, the images shown on the left side are FITC fluorescence images, and the images shown on the right side are merged images of the fluorescence image and the phase difference microscope image.

In series [3] the test system is normal human dermal fibroblasts (NHDF). Nature of the series: Cell selectivity of FITC-labelled peptides: penetration into NHDF. Type of series: cell-based. To be noted: FITC-labelled peptide 4 μM, four hours, FIG. 2. Here is the method:
as §1
(§2) Subsequently, the penetration of each peptide into hMSC, normal human dermal fibroblasts (NHDF), and BxPC3 cells, which are an established cell line derived from human pancreatic adenocarcinoma, was confirmed. […] Following culturing, each of the cells was subjected to nuclear staining with Hoechst 33342 (excitation wavelength: 352 nm, fluorescence wavelength: 461 nm), and was then observed using a phase difference/fluorescence microscope. In FIG. 2, the images shown on the left side are FITC fluorescence images, and the images shown on the right side are merged images of the fluorescence image and the phase difference microscope image.

Another series relates to BxPC3 cells. Nature of the series: Cell selectivity of FITC-labelled peptides: penetration into BxPC3 cells. Type of series: cell-based, human. To be noted: FITC-labelled peptide 4 μM, four hours, FIG. 2. Here is the method:
as §1, §2

A short description of series [4]: Degradation resistance in human plasma (MALDI-TOFMS). In kind it is in vitro ADME. To be noted: human plasma 50% by mass, 0 to 120 minutes, FIG. 4. An excerpt: For the single peptide, tandem peptide, and tandem mutated peptide of MSCPP106 shown below in Table 2, the degradation resistance in human plasma was investigated. In Table 2, “tandem MSCPP106” describes a peptide composed of sequence containing two repeated amino acid sequences for MSCPP106 linked via a glycine residue spacer. Further, “tandem mut MSCPP106” describes a peptide composed of a sequence in which the cysteine residues in the amino acid sequence of tandem MSCPP106 have been methylated (mC).
Each of the above peptides was added to human plasma with a concentration of 50% by mass, the mixture was then sampled immediately after starting the degradation test (0 minutes), and then after 5 minutes, after 10 minutes, after 20 minutes, after 30 minutes, after 60 minutes and after 120 minutes, and each sample was analyzed by MALDI-TOFMS (Matrix Assisted Laser Desorption/Ionization-Time of Flight Mass Spectrometry). The ratio of the mass of the retained peptide that had not degraded at each of the sampling points from the start of the test, relative to the mass of the peptide (100% by mass) at the start of the test was calculated and graphed (see FIG. 4).

Series [5] has as its system hMSC. The experiment in a line: Intracellular localization of [FAM]-tandem MSCPP106 in hMSC. In kind it is cell-based, human. To be noted: [FAM]-labelled, 4 μM, fluorescence maintained in lysosomes, FIG. 6. Here is the method: Next, the intracellular localization of [FAM]-tandem MSCPP106 was investigated. Specifically, hMSC were inoculated into a 24-well plate to achieve 4×10^4 cells/well, and four hours after the inoculation, the medium was replaced with an RPMI medium containing 10% FBS, and culturing was conducted for 60 hours. Following culturing, a medium (RPMI 1640 medium containing 10% FBS) containing 4 μM of [FAM]-tandem MSCPP106 was added to the hMSC and cultured for 24 hours. Following culturing, nuclear staining was conducted with Hoechst 33342 (excitation wavelength: 352 nm, fluorescence wavelength: 461 nm), lysosomes were also stained using LysoTracker (a registered trademark) RED DND-99 (a lysosome content marker, excitation wavelength: 555 nm, fluorescence wavelength: 584 nm), and the cultures were then observed using a phase difference/fluorescence microscope (magnification: 60×). In FIG. 6, “Merge” indicates a merged image of the FAM fluorescence image and the LysoTracker (a registered trademark) RED DND-99 fluorescence image.

In series [6] the test system is CAF of the cancer stroma, subcutaneous tumor. Nature of the series: Absorption into CAF of cancer stroma in scirrhous cancer model mouse. Type of series: in vivo. To be noted: [FAM]-labelled, 300 μg intravenous, 30 minutes after injection, FIG. 8C. The protocol: Using the same method as Example 7, a scirrhous cancer model mouse was obtained. Subsequently, the obtained scirrhous cancer model mouse was injected intravenously with [FAM]-tandem MSCPP106 (300 μg). Subsequently, the pharmacokinetics of the peptide 30 minutes after the intravenous injection were analyzed by tissue analysis of the freshly dissected specimen of the peptide-administered mouse.
FIG. 8C is a series of phase difference microscope images and fluorescent images of the subcutaneous tumor. The upper two rows are images at a magnification of 20×, whereas the lower two rows are images at a magnification of 40×. Further, “Merge” represents merged images of each phase difference microscope image and each fluorescent image.

Series [7] relates to cancer stroma, subcutaneous tumor (BxPC3 cells and DsRed2 hMSC). The experiment in a line: Absorption of [FAM]-tandem and [FAM]-tandem mut MSCPP106 into cancer stroma in scirrhous pancreatic cancer model mice. To be noted: [FAM]-labelled, 300 μg intravenous, 60 minutes after injection. In kind it is in vivo, mouse. From the text:
Next, in order to investigate the functional importance of the cysteine within the peptide sequence (positioned second from the N-terminus), a comparison was made of the absorption into cancer stroma of [FAM]-tandem MSCPP106 and [FAM]-tandem mut MSCPP106 (having a sequence in which the N-terminus is labeled with FAM, and having a mutation in which the side-chain —SH group of the cysteine second from the N-terminus has been methylated). With the exception of using cloned hMSC cells that constantly expressed DsRed2, the same method as Example 7 was used to obtain scirrhous pancreatic cancer model mice. Subsequently, the obtained scirrhous pancreatic cancer model mice were injected intravenously with [FAM]-tandem MSCPP106 or [FAM]-tandem mut MSCPP106 (300 μg in each case). In each case, the pharmacokinetics of the peptide 60 minutes after the intravenous injection were then analyzed by tissue analysis of the freshly dissected specimen of the peptide-administered mouse.
FIG. 9B is a series of fluorescent images of subcutaneous tumors in mice administered with [FAM]-tandem MSCPP106 or [FAM]-tandem mut MSCPP106 (magnification: 4×).
FIG. 9C is a series of fluorescent images of a subcutaneous transplanted tumor in a mouse administered with tandem MSCPP106 (magnification: 4×, 20× and 40×). […]

Entries after “also recorded” stand apart in the source; their conditions may differ. Peptide text beside a SMILES is read from it.

Regarding WPPLQRWRN [MSCPP33], the “penetration into human bone marrow-derived mesenchymal stem cells (hMSC)” value in series [1] is on record as “exhibited penetration”. For the same compound, the “absorption into hMSC” value in the series on hMSC [2] was “high absorption and fixed selective absorption”.

KCAELFRHL [MSCPP106]: in series [1], the “fluorescence observed in hMSC” value was “Particularly strong fluorescence” and the “penetration into human bone marrow-derived mesenchymal stem cells (hMSC)” value was “exhibited penetration”. The “absorption into hMSC” value in the series on hMSC [2] was “high absorption and fixed selective absorption; also recorded: efficient absorption”. Also, in series [3], the “absorption into NHDF” value was “lower absorption into NHDF compared with the absorption into hMSC”. The “absorption into the pancreatic cancer cells BxPC3” value with BxPC3 cells is on record as “low absorption”.

Consider RTHPVWSRT [MSCPP48], for which the “penetration into human bone marrow-derived mesenchymal stem cells (hMSC)” value in series [1] is “exhibited penetration”. Also, the “absorption into hMSC” value with hMSC [2] was “high absorption and fixed selective absorption”.

For the compound RRWMQWPWH [MSCPP49], in series [1], the “penetration into human bone marrow-derived mesenchymal stem cells (hMSC)” value is listed as “exhibited penetration”. For the same compound, the “absorption into hMSC” value in the series on hMSC [2] was “high absorption and fixed selective absorption”.

Consider `CSC[C@H](NC(=O)[C@H](CCCCN)NC(=O)CNC(=O)[C@H](CC(C)C)NC(=O)[C@H](Cc1c[nH]cn1)NC(=O)[C@H](CCCNC(=N)N)NC(=O)[C@H](Cc1ccccc1)NC(=O)[C@H](CC(C)C)NC(=O)[C@H](CCC(=O)O)NC(=O)[C@H](C)NC(=O)[C@H](CSC)NC(=O)[C@@H](N)CCCCN)C(=O)N[C@@H](C)C(=O)N[C@@H](CCC(=O)O)C(=O)N[C@@H](CC(C)C)C(=O)N[C@@H](Cc1ccccc1)C(=O)N[C@@H](CCCNC(=N)N)C(=O)N[C@@H](Cc1c[nH]cn1)C(=O)N[C@@H](CC(C)C)C(=O)O` [tandem mut MSCPP106, KmCAELFRHL-G-KmCAELFRHL] (H-KC(Me)AELFRHLGKC(Me)AELFRHL-OH; N-terminus and C-terminus assumed), for which the “degradation resistance in human plasma” value in series [4] was “excellent degradation resistance compared with the single MSCPP106”.

For the compound `CC(C)C[C@H](NC(=O)[C@H](Cc1c[nH]cn1)NC(=O)[C@H](CCCNC(=N)N)NC(=O)[C@H](Cc1ccccc1)NC(=O)[C@H](CC(C)C)NC(=O)[C@H](CCC(=O)O)NC(=O)[C@H](C)NC(=O)[C@H](CS)NC(=O)[C@H](CCCCN)NC(=O)CNC(=O)[C@H](CC(C)C)NC(=O)[C@H](Cc1c[nH]cn1)NC(=O)[C@H](CCCNC(=N)N)NC(=O)[C@H](Cc1ccccc1)NC(=O)[C@H](CC(C)C)NC(=O)[C@H](CCC(=O)O)NC(=O)[C@H](C)NC(=O)[C@H](CS)NC(=O)[C@@H](N)CCCCN)C(=O)O` [tandem MSCPP106, KCAELFRHL-G-KCAELFRHL] (H-KCAELFRHLGKCAELFRHL-OH; N-terminus and C-terminus assumed), the “degradation resistance in human plasma” value in series [4] is given as “excellent degradation resistance compared with the single MSCPP106”. In addition, the “resistance to intracellular digestion (degradation)” value in the series with hMSC [5] is recorded as “at least 24 hours”. Also, the “absorption into the CAF of the cancer stroma” value in series [6] is on record as “selective absorption”. Further, the “absorption into cancer stroma, comparison of peptides” value in series [7] (FIG. 9B) is “even better absorption into cancer stroma than tandem mut MSCPP106”. Besides, the “absorption into hMSC-derived hCAF and mouse MSC-derived CAF” value in series [7] (FIG. 9C) is on record as “excellent absorption into both forms of CAF”.
